Here are results for eleven molecules from article PMC6332508, “A Promising PET Tracer for Imaging of α7 Nicotinic Acetylcholine Receptors in the Brain: Design, Synthesis, and in Vivo Evaluation of a Dibenzothiophene-Based Radioligand” (Molecules, 2015).

In one data set the target is T1, human α7 nAChR (Homo sapiens, UniProt P36544).
T1 construct: expressed in transfected cells; host or cells: SH-SY5Y
Nature of the data set: Radioligand displacement at human α7 nAChR, [3H]methyllycaconitine, SH-SY5Y cells. Format: binding. The note with it: for Selectivity (Ki ratio) α7/α3β4: Ki hα3β4 divided by Ki hα7; for Selectivity (Ki ratio) α7/α4β2: Ki hα4β2 divided by Ki hα7.

A further data set deals with T2, human α4β2 nAChR (Homo sapiens, UniProt P17787+P43681).
T2 construct: expressed in transfected cells; host or cells: HEK293
The data set is described as follows: Radioligand displacement at human α4β2 nAChR, [3H]epibatidine, HEK293 cells. Format: binding. Here is the method: (§1) The affinity of the test compounds for human α4β2 and α3β4 nAChR was determined as described above. In brief, HEK293 cells stably expressing human α4β2 or α3β4 nAChR [66] were cultured. […] Nonspecific binding was determined in the presence of 300 μM (−)-nicotine tartrate. Incubation of the samples, separation of free from receptor-bound radioligand, and data evaluation were performed as described above.
A general note: Loss of bound radioactivity is the signal in a displacement assay; it reports binding, not function.

The target in a further data set is T3, human α3β4 nAChR (Homo sapiens, UniProt P30926+P32297).
T3 construct: expressed in transfected cells; host or cells: HEK293
The data set is described as follows: Radioligand displacement at human α3β4 nAChR, [3H]epibatidine, HEK293 cells. The class given is binding. The method, then: as §1

In the next data set the target is rat α6β2* nAChR (Rattus norvegicus, UniProt P12390+P43143). Nature of the data set: [3H]epibatidine binding to antibody-immobilized native rat α6β2* nAChR from striatum. Particulars: read-out: Affinity (Ki in nM) rα6β2*, immunoimmobilization with anti-rα6 antibody, [3H]epibatidine 0.1 nM. Here is the method: The specificity of the anti-α6 antibody was tested as described. The receptors were prepared and immobilized as previously described by the subunit-specific antibody. […] Incubations were performed in a buffer containing 50 mM Tris-HCl, pH 7, 150 mM NaCl, 5 mM KCl, 1 mM MgCl2, 2.5 mM CaCl2, 2 mg∙mL^−1 BSA, and 0.05% Tween 20. Specific ligand binding was defined as total binding minus the binding in the presence of 100 nM (±)-epibatidine dihydrochloride hydrate.
The experimental data obtained from the binding experiments were analyzed by means of a non-linear least square procedure using the LIGAND program. The Ki values of the test compounds were also determined by means of the LIGAND program by simultaneously fitting the data obtained from three to five independent saturation and competition binding experiments.

Another data set addresses T4, human 5-HT3 receptor (Homo sapiens, UniProt P46098).
T4 construct: host or cells: HEK-293
T4 sequence (P46098 24-478): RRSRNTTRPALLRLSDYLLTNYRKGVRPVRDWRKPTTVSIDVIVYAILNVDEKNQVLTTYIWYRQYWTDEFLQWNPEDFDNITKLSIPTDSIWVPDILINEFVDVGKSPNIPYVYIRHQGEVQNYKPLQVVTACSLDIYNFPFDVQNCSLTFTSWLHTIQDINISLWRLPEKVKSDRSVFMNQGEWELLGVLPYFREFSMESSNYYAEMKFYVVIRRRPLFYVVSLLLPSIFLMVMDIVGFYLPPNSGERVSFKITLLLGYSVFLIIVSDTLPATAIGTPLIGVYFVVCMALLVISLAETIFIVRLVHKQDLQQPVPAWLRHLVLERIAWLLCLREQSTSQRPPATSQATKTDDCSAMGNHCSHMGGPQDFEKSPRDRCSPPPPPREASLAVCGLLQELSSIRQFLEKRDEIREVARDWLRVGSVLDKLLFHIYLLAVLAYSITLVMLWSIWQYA
The data set is described as follows: Radioligand binding at human 5-HT3 receptor, [3H]GR65630 (Eurofins Panlabs). Particulars: read-out: 5-HT3 percentage of inhibition.

The target of data set [1] is T5, α7 nAChR (Macaca mulatta, UniProt Q866A2).
T5 construct: from tissue; host or cells: brain of a living rhesus monkey
Nature of the data set: Comparative PET study in a rhesus monkey. Format: in vivo, rhesus monkey (Macaca mulatta). The method, then: One male rhesus monkey (Macaca mulatta, 6 years old, body weight = 10 kg) underwent two PET imaging sessions with [^18F]10a and [^18F]10b, respectively. The scans were conducted 19 days apart. The monkey was initially sedated by intramuscular ketamine at 10 mg∙kg^−1 at ~2 h before the PET scan and anesthetized by 1.5%–3% isoflurane throughout the imaging session. PET scan was performed using a FOCUS-220 PET scanner (Siemens Preclinical Solutions, Knoxville, TN, USA). After a transmission scan, 167 MBq of [^18F]10a (specific activity of 362 GBq∙μmol^−1) or 185 MBq of [^18F]10b (specific activity of 159 GBq·μmol^−1) were administered intravenously. Emission data were acquired in list mode for 240 min. Raw list-mode PET data was histogrammed (frames of 6 × 30 s; 3 × 1 min; 2 × 2 min; 46 × 5 min to scan termination) and reconstructed with 2D filtered back projection, using a 0.15 cm^−1 Shepp filter and including corrections for scanner normalization, detector dead time, randoms, and radiation scatter and attenuation. The PET images were then registered to MR images, acquired with a Siemens 3 T Trio scanner, with a 6-parameter rigid body registration. The MR native space was then normalized using nonlinear affine registration to a high-resolution rhesus monkey atlas using BioImage Suite 3.01 (http://www.bioimagesuite.org/index.html). Time-activity curves were extracted by mapping atlas-defined regions to PET native space using the optimal transformation matrices calculated in the registration and normalization steps. Regions extracted included amygdala, caudate, cerebellum, cingulate, cortical regions (frontal, occipital, and temporal cortex), hippocampus, putamen, thalamus, and pons.

For data set [2], the target named is α7 nAChR. The note with it: [125I]α-bungarotoxin labelled rat cortical membranes; cited from earlier work.
Another data set concerns the target α3β4 nAChR. Also on record: method as in PMID 24050653. Particulars: rat receptor subtype; cited from earlier work.
A further data set concerns the target α4β2 nAChR. Particulars: cited from earlier work.
The mark [3] stands for this setting: stably transfected SH-SY5Y cells, [3H]methyllycaconitine, read-out: Affinity (Ki in nM) hα7.
[4] abbreviates: stably transfected HEK-293 cells, [3H]epibatidine, read-out: Affinity (Ki in nM) hα4β2.
[5] abbreviates: Affinity (Ki in nM) hα3β4, stably transfected HEK-293 cells, [3H]epibatidine.
[6] abbreviates: 0.1 μM concentration of test compound, [3H]GR65630 binding.
[7] abbreviates: stably transfected HEK-293 cells, [3H]epibatidine, read-out: Affinity (Ki in nM) hα3β4.

SMILES strings stand for the structures. Where “and” joins values, the source holds several entries; their conditions need not be identical. Equal values may be shown once. Read-outs that look alike come from different tables or passages of the source. Bounds are passed on as bounds.

T2 sequence (P43681 29-627 limits assumed): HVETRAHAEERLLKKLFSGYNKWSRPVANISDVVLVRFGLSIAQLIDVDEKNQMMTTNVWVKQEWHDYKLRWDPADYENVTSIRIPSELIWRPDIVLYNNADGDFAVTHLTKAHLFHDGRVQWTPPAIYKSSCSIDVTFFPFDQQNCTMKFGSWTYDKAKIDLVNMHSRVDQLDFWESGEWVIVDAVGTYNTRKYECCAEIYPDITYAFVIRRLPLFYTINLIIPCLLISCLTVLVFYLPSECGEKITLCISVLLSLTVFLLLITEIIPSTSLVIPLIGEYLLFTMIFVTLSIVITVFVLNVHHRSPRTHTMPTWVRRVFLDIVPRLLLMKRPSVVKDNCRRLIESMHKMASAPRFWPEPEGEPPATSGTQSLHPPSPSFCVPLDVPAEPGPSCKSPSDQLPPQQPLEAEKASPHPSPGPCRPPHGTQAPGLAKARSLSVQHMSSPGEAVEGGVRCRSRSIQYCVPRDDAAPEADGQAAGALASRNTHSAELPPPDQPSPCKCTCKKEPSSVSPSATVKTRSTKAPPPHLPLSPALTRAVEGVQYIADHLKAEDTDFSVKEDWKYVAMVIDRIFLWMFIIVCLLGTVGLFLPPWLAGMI
T2 sequence (P17787 26-502): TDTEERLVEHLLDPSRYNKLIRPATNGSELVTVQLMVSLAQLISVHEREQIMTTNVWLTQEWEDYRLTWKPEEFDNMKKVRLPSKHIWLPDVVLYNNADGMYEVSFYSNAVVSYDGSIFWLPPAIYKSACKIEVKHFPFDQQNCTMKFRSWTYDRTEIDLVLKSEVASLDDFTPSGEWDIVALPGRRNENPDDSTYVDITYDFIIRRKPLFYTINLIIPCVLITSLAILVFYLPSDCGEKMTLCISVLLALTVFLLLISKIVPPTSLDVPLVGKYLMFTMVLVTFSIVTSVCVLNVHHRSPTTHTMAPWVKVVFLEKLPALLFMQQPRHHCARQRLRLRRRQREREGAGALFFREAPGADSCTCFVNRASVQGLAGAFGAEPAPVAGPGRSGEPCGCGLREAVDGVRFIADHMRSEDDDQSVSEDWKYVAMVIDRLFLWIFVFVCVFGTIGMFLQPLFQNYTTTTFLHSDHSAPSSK
T3 sequence (P32297 32-505): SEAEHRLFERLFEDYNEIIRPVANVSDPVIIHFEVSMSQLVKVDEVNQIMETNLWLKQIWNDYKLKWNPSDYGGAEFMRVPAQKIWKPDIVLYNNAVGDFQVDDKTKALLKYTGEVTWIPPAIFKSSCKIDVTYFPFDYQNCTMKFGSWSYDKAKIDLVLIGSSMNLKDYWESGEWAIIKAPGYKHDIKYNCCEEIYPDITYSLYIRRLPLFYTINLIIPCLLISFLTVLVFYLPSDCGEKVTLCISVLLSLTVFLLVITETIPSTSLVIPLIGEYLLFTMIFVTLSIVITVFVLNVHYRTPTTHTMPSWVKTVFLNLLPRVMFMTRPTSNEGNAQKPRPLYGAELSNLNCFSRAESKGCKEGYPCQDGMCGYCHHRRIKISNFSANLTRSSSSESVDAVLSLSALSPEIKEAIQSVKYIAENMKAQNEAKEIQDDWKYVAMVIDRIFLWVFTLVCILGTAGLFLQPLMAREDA
T3 sequence (P30926 22-498): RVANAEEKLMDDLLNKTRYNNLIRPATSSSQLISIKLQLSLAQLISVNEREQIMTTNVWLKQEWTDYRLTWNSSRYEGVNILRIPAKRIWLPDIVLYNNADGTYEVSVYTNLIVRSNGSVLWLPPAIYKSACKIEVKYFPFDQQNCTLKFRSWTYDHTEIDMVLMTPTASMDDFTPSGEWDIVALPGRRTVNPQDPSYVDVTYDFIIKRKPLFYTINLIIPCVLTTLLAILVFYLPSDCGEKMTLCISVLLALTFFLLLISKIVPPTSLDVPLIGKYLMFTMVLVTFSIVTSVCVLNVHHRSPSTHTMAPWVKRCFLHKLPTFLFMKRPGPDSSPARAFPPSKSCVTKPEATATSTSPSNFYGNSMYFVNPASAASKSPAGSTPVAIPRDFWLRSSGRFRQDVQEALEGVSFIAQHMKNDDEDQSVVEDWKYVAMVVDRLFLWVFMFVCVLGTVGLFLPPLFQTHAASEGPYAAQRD
T1 sequence (P36544 23-502): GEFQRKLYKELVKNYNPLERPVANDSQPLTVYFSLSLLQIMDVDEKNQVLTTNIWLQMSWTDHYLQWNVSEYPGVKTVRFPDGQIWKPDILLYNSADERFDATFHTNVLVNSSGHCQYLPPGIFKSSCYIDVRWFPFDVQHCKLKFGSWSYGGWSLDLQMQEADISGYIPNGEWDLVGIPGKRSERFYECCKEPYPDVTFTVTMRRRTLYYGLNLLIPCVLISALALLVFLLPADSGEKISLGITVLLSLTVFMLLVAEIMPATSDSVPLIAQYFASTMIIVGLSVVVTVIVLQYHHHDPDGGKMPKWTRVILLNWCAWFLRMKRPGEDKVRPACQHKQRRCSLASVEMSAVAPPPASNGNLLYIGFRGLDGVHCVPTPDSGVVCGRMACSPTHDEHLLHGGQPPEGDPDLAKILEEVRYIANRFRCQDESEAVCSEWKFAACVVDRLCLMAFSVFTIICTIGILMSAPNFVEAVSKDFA
rat α6β2* nAChR, sequence (P43143 31-493): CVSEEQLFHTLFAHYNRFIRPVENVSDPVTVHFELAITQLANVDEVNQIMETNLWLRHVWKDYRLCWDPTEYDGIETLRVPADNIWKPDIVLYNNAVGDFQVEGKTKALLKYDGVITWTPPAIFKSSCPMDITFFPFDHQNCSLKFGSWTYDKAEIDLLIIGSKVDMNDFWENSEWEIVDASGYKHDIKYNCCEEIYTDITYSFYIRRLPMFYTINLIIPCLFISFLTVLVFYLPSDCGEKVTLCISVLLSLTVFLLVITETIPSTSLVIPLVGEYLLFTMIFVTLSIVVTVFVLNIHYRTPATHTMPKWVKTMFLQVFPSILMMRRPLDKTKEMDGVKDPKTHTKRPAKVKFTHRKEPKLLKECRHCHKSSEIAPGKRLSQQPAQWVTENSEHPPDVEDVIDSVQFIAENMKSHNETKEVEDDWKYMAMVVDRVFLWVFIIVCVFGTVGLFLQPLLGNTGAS
rat α6β2* nAChR, sequence (P12391 31-464, further chain): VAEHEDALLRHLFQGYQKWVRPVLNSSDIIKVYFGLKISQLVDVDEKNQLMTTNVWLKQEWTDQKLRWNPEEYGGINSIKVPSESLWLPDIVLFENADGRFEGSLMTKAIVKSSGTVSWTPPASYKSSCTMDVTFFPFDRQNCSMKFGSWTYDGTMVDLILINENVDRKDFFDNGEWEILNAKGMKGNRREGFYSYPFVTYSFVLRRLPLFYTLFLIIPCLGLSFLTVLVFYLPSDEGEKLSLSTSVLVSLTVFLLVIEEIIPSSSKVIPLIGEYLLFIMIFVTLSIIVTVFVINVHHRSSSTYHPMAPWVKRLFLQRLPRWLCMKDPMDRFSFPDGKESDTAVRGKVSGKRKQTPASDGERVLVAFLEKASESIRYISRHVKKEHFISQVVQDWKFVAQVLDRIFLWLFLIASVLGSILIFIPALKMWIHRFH
rat α6β2* nAChR, sequence (P12390 25-500): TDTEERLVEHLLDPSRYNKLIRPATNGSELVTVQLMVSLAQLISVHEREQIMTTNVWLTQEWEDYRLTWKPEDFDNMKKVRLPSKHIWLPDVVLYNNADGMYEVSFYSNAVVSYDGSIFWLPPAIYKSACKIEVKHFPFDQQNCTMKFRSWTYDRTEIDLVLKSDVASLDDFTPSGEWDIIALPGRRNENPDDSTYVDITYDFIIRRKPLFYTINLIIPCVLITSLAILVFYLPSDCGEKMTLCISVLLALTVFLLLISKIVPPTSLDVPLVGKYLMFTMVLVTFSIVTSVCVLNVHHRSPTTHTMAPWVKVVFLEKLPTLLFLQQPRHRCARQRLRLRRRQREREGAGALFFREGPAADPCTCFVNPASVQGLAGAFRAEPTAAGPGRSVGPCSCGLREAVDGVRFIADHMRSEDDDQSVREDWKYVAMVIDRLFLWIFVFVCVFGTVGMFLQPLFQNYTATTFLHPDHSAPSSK
T5 sequence (Q866A2 23-502): as the sequence (P36544 23-502) above, with N171S, R186K, V373M, V376A counted along it

One may read the Ki as a measure of affinity in units of concentration, obtained from inhibition or displacement. As a reminder, the inhibition is the percentage by which the read-out fell short of the control. A word on the melting point: it is the temperature, or range, at which the solid turns liquid. With `CN1C2CCCC1CN(c1ccc3c(c1)S(=O)(=O)c1ccc(F)cc1-3)C2` [Compound 12a], the melting point was 214 to 217 °C (dec.). At human α7 nAChR, the “Selectivity (Ki ratio) α7/α3β4” value is recorded as 3 and the “Selectivity (Ki ratio) α7/α4β2” value came to 5. Moreover, the Ki on human α7 nAChR (setting [3]) came out at 30.9 ± 8.72 nM. At human α4β2 nAChR (setting [4]), the Ki is 141 ± 11.7 nM. Besides, the affinity at human α3β4 nAChR (setting [5]), expressed as Ki, was 96 ± 1.48 nM. Moreover, on rat α6β2* nAChR, the Ki came to 1180 ± 360 nM. The inhibition at 0.1 µM on human 5-HT3 receptor (setting [6]) was determined as 10%.

Regarding `O=S1(=O)c2cc(N3CCN4CCC3CC4)ccc2-c2cccc([18F])c21` [[^18F]10b, reference compound], the “total volume of distribution VT” value on α7 nAChR [1] (cerebellum) was 26.8 mL∙cm^−3; on α7 nAChR [1] (thalamus) it was 46.7 mL∙cm^−3.

As to `O=S1(=O)c2ccccc2-c2ccc(N3CCN4CCC3CC4)cc21` [Compound 10], the melting point is 238.5 to 240 °C (dec.). On human α7 nAChR, the Ki came to 0.51 ± 0.32 nM, the “Selectivity (Ki ratio) α7/α3β4” value was 97 and the “Selectivity (Ki ratio) α7/α4β2” value is reported as 623. This molecule gave an inhibitory constant (Ki) at human α4β2 nAChR of 318 ± 43.3 nM. Also, the Ki on human α3β4 nAChR (setting [5]) was 49.6 ± 14.7 nM. The Ki on rat α6β2* nAChR is 517 ± 186 nM. The inhibition at 0.1 µM on human 5-HT3 receptor amounted to 35%.

Regarding `O=S1(=O)c2ccccc2-c2cc(F)c(N3CCN4CCC3CC4)cc21` [Compound 10c, 3-(1,4-Diazabicyclo[3.2.2]nonan-4-yl)-2-fluorodibenzo[b,d]thiophene 5,5-dioxide], the melting point is 305 to 309 °C (dec.). For the same molecule, on human α7 nAChR, the “Selectivity (Ki ratio) α7/α3β4” value was 33 and the “Selectivity (Ki ratio) α7/α4β2” value is 59. For the same molecule, the “fold lower affinity at the α7 subtype” value at human α7 nAChR (relative to 10a and 10b) was “about 10 fold”. Besides, the Ki at human α7 nAChR (setting [3]) is 8.53 ± 1.74 nM. Also, the Ki at human α4β2 nAChR is 507 ± 212 nM. Moreover, the Ki at human α3β4 nAChR came to 279 ± 24.4 nM. In addition, the Ki at rat α6β2* nAChR is 1390 ± 340 nM. Besides, the inhibition at 0.1 µM at human 5-HT3 receptor (setting [6]) is 26%.

Turning to `CN1CC2CCC(C1)N2c1ccc2c(c1)S(=O)(=O)c1c(F)cccc1-2` [Compound 14b], the melting point is 254.5 to 256 °C (dec.). Besides, at human α7 nAChR, the “Selectivity (Ki ratio) α7/α3β4” value is reported as greater than 500 and the “Selectivity (Ki ratio) α7/α4β2” value is reported as greater than 400. Further, on human α7 nAChR (setting [3]), the Ki stood at 9.26 ± 2.23 nM. On human α4β2 nAChR (setting [4]), the Ki is greater than 4000 nM. Besides, the Ki on human α3β4 nAChR (setting [7]) is greater than 5000 nM. Besides, the Ki on rat α6β2* nAChR is 1450 ± 370 nM. The inhibition at 0.1 µM on human 5-HT3 receptor (setting [6]) was determined as 4%.

On to `O=S1(=O)c2cc(N3CCN4CCC3CC4)ccc2-c2cccc(F)c21` [Compound 10b, 3-(1,4-Diazabicyclo[3.2.2]nonan-4-yl)-6-fluorodibenzo[b,d]thiophene 5,5-dioxide], for which the Ki on human α4β2 nAChR (setting [4]) was 211 ± 108 nM; at human α3β4 nAChR (setting [5]) it was 43 nM and 42.3 nM; on rat α6β2* nAChR, 435 ± 152 nM; at α7 nAChR [2] it was 0.4 nM; on α3β4 nAChR, 709 nM. Besides, the inhibition at 0.1 µM at human 5-HT3 receptor (setting [6]) was determined as 42%.

Turning to `O=S1(=O)c2cc(N3CCN4CCC3CC4)ccc2-c2cccc(F)c21` [[^18F]10b, reference compound], the Ki on α4β2 nAChR was 562 nM.

On to `O=[N+]([O-])c1ccc2c(c1)-c1ccc(N3CCN4CCC3CC4)cc1S2(=O)=O`, for which the melting point was 291 to 294 °C (dec.).

Consider `Fc1ccc(-c2nnc(N3CCN4CCC3CC4)o2)cc1` [[^18F]NS10743], for which, at α4β2 nAChR, the Ki was greater than 10000 nM.

In the case of `CN1C2CCC1CN(c1ccc3c(c1)S(=O)(=O)c1c(F)cccc1-3)C2` [Compound 13b], the melting point was 260.5 to 262.5 °C (dec.). Moreover, at human α7 nAChR, the “Selectivity (Ki ratio) α7/α3β4” value is 5 and the “Selectivity (Ki ratio) α7/α4β2” value was found to be 10. In addition, at human α7 nAChR (setting [3]), the Ki is 40.9 ± 7.77 nM. The Ki on human α4β2 nAChR (setting [4]) turned out to be 426 ± 197 nM. Moreover, the Ki at human α3β4 nAChR (setting [7]) was determined as 224 ± 51.7 nM. Moreover, on rat α6β2* nAChR, the inhibition constant Ki worked out at 2260 ± 540 nM. Further, on human 5-HT3 receptor (setting [6]), the inhibition at 0.1 µM worked out at 10%.

`CN1C2CCCC1CN(c1ccc3c(c1)S(=O)(=O)c1c(F)cccc1-3)C2` [Compound 12b, 6-Fluoro-3-(9-methyl-3,9-diazabicyclo[3.3.1]nonan-3-yl)dibenzo[b,d]thiophene 5,5-dioxide]: the melting point was 264 to 272 °C (dec.). At human α7 nAChR, the “Selectivity (Ki ratio) α7/α3β4” value worked out at 1 and the “Selectivity (Ki ratio) α7/α4β2” value was 3. The Ki on human α7 nAChR (setting [3]) came to 105 ± 23.9 nM. The Ki at human α4β2 nAChR (setting [4]) came out at 301 ± 148 nM. Besides, at human α3β4 nAChR (setting [5]), affinity was put at a Ki of 94.8 ± 6.48 nM. At rat α6β2* nAChR, the Ki was 1190 ± 230 nM. The inhibition at 0.1 µM on human 5-HT3 receptor (setting [6]) was determined as 11%.
